Where “and” joins values, the source holds several entries; their conditions need not be identical. Identical values can stand only once.
Legend:
[1] = biological target: Muscarinic acetylcholine receptor M1 (Homo sapiens) (UniProt P11229); experiment: Displacement of [3H]NMS from human mAChR1 receptor expressed in F1pIn CHO cells after 60 mins by scintillation counting analysis
[2] = biological target: Muscarinic acetylcholine receptor M1 (Homo sapiens) (UniProt P11229); experiment: Agonist activity at human mAChR1 receptor expressed in F1pIn CHO cells assessed as induction of intracellular calcium mobilization
[3] = biological target: Muscarinic acetylcholine receptor M1 (Homo sapiens) (UniProt P11229); experiment: Partial agonist activity at human mAChR1 receptor expressed in F1pIn CHO cells assessed as induction of intracellular calcium mobilization

Muscarinic acetylcholine receptor M1 (Homo sapiens), sequence (P11229 whole entry, looked up): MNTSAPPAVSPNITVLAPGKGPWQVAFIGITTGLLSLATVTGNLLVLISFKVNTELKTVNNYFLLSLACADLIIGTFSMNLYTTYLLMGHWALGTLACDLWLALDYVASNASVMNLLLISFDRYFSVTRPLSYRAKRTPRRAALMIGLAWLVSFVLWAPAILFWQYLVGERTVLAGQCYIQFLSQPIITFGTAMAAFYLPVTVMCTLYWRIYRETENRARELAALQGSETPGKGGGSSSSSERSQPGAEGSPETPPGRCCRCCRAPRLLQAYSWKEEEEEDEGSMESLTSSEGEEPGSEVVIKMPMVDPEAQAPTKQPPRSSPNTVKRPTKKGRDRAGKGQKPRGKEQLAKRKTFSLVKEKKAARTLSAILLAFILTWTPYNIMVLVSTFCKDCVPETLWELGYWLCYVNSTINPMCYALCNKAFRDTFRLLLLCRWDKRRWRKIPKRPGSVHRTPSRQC

Compound | IC50 [1] | EC50 [2] [µM] | EC50 [3]
O=C(Cc1ccccc1)NC1CCN(CCCN2C(=O)COc3ccccc32)CC1 [N-{1-[3-(3-Oxo-2,3-dihydrobenzo[1,4]oxazin-4-yl)propyl]-piperidin-4-yl}-2-phenylacetamide] | 8.53 µM and 8.51 µM | 0.129 | –
O=C1COc2ccccc2N1CCCN1CCC(c2noc3cc(F)ccc23)CC1 | 3.25 µM and 3.24 µM | – | –
O=C1COc2ccccc2N1CCCN1CCN(c2cccc3[nH]c(=O)oc23)CC1 | 4.27 µM and 4.26 µM | – | –

Continued, values first:

IC50 [1] | EC50 [2] [µM] | EC50 [3] | Compound
1.86 µM and 1.87 µM | – | – | O=C1COc2ccccc2N1CCCN1CCN(c2cccc(Cl)c2Cl)CC1
4.19 µM and 4.17 µM | – | 1.04 µM and 1.05 µM | O=C1COc2ccccc2N1CCCN1CCN(c2nsc3ccccc23)CC1
5.18 µM and 5.13 µM | – | – | COc1ccccc1N1CCN(CCCN2C(=O)COc3ccccc32)CC1
